Laboratory results published in ChEMBL document CHEMBL4402544, “Reasonably activating Nrf2: A long-term, effective and controllable strategy for neurodegenerative diseases” (Eur J Med Chem, 2020).
Where a SMILES comes first, the peptide text is derived from it. [ ]: non-standard residue; d: D form. ξ: configuration not given here. ξCha = NC(CC1CCCCC1)C(=O)O; ξThz = O=C(O)C1CSCN1

Columns and labels:
[1] = target: T1, Nuclear factor erythroid 2-related factor 2 (Homo sapiens) (UniProt Q16236); assay: Activation of Nrf2 in human SK-N-SH cells expressing Nqo1 ARE-Luc reporter plasmid at 10 uM after 18 hrs by luciferase reporter gene assay; format: cell-based
T1 sequence (whole entry): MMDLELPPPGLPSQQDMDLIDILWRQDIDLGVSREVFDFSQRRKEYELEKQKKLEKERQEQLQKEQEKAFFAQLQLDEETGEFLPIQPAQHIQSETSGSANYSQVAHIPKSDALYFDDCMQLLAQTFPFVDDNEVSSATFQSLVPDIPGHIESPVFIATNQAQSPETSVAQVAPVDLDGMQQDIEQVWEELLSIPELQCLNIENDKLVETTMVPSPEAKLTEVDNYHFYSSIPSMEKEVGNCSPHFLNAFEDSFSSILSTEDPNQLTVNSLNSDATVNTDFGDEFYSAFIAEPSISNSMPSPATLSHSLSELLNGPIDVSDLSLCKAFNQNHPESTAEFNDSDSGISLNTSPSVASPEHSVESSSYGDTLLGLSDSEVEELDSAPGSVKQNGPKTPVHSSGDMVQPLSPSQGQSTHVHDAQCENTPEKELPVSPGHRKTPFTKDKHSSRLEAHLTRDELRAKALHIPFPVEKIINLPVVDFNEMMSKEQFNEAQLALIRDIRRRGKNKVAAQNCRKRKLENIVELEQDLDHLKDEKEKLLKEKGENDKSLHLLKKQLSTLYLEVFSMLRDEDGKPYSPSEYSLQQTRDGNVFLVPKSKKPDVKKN

[2] = Neuroprotection activity in human MC65 cells; format: functional, cell-based
[3] = target: Kelch-like ECH-associated protein 1 (Homo sapiens, UniProt Q14145); assay: Binding affinity to Keap1 (unknown origin)
[4] = target: T1, Nuclear factor erythroid 2-related factor 2 (Homo sapiens); assay: Activation of Nrf2 (unknown origin) assessed as induction of ARE at 60 uM

Chain of Kelch-like ECH-associated protein 1 (Q14145 whole entry): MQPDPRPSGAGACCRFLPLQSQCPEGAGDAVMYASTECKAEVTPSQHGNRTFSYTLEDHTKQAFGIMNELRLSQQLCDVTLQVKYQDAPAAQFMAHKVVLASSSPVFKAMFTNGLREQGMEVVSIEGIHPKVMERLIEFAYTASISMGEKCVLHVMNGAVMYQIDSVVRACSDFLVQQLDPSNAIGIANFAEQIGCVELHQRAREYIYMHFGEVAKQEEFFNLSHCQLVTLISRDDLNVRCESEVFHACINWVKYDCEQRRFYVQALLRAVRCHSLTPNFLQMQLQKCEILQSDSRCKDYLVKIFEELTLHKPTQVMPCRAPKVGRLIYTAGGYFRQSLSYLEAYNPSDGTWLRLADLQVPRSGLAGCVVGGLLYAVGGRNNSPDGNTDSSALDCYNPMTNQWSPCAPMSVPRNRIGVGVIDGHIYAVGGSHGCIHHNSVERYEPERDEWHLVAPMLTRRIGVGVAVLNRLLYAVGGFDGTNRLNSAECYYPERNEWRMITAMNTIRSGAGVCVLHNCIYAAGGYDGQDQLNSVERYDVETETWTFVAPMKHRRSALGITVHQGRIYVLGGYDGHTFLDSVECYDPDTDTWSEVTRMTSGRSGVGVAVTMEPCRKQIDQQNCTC

Which fold change (FC) [1] does the source give for C[C@@H]1C(NC(=O)c2ccccc2O)=CC(=O)[C@@H]2O[C@H]12 here?
Its fold change (FC) is greater than 4.

With COc1ccc2[nH]cc(CCNC(=O)CC(=O)CCc3ccc(O)cc3)c2c1 as the compound, how does the EC50 [2] read?
The EC50 was 27.6 nM.

Which IC50 [3] does the source give for C[C@@H](O)[C@H](NC(=O)[C@H](CCC(=O)O)NC(=O)C1CSCN1C(=O)[C@@H](N)CC(=O)O)C(=O)NCC(=O)N[C@@H](CCC(=O)O)C(=O)NC(CC1CCCCC1)C(=O)O (some centres undefined) (H-D[ξThz]ETGE[ξCha]-OH) here?
The IC50 was 31 nM.

With C/C=C/C(=O)Oc1ccc2[nH]cc(CCNC(C)=O)c2c1 as the compound, how does the fold change (FC) [4] read?
The fold change (FC) was 30.7.
